# From PubChem BioAssay (NCI)
#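 Here, GI50 denotes the concentration required for 50% inhibition of growth. TGI: total growth inhibition.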
# Tests used:
# Experiment in all cases: DTP human tumour cell line panel, 384-well format
# [1] = system: OVCAR-5 ovarian
# [2] = system: SK-MEL-5 melanoma
# [3] = system: SK-MEL-28 melanoma
# [4] = system: MCF7 breast
# [5] = system: MOLT-4 leukemia
# [6] = system: HOP-62 NSCLC
# [7] = system: SNB-75 CNS
# [8] = system: NCI-H522 lung
# [9] = system: HS 578T breast
# [10] = system: OVCAR-4 ovarian
# [11] = system: HT29 colon
# [12] = system: SNB-19 CNS
# [13] = system: HCT-15 colon
# [14] = system: RPMI-8226 leukemia
# [15] = system: SF-268 CNS
# [16] = system: A549 NSCLC
# [17] = system: IGROV1 ovarian
# [18] = system: NCI-H322M lung
# [19] = system: HCT-116 colon
# [20] = system: 786-0 renal
# [21] = system: DU-145 prostate
# [22] = system: UACC-257 melanoma
# [23] = system: HOP-92 NSCLC
# [24] = system: M14 melanoma
# [25] = system: MDA-MB-435 melanoma
# [26] = system: KM12 colon
# [27] = system: UO-31 renal
# [28] = system: TK-10 renal
# [29] = system: HCC-2998 colon
# [30] = system: SF-295 CNS
# [31] = system: U251 glioblastoma
# [32] = system: BT-549 breast
# [33] = system: SR leukemia
# [34] = system: ACHN renal
# [35] = system: COLO 205 colon
# [36] = system: SN12C renal
# [37] = system: RXF 393 renal
# [38] = system: MDA-MB-468 breast
# [39] = system: SK-OV-3 ovarian
# [40] = system: MDA-MB-231 breast
# [41] = system: A498 renal
# [42] = system: PC-3 prostate
# [43] = system: NCI-H226 lung
# [44] = system: OVCAR-8 ovarian
# [45] = system: EKVX NSCLC
# [46] = system: MALME-3M melanoma
# [47] = system: OVCAR-3 ovarian
# [48] = system: UACC-62 melanoma
# [49] = system: NCI-H460 NSCLC
# [50] = system: HL-60(TB) leukemia
# [51] = system: T-47D breast
# [52] = system: SW-620 colon
# [53] = system: NCI-H23 lung
# [54] = system: LOX IMVI melanoma
# [55] = system: SF-539 CNS
# [56] = system: CAKI-1 renal
# [57] = system: NCI/ADR-RES ovarian
compound,measurement,setting,value
COc1cc2nccc(Oc3ccc(NC(=O)NC4CC4)c(Cl)c3)c2cc1C(N)=O,GI50,[1],50 µM
same,TGI,[1],> 100 µM
same,GI50,[2],17.8 µM
same,TGI,[2],55.5 µM
same,GI50,[3],72.8 µM
same,TGI,[3],> 100 µM
same,GI50,[4],35.4 µM
same,TGI,[4],> 100 µM
same,GI50,[5],5.38 µM
same,TGI,[5],23.3 µM
same,GI50,[6],38.2 µM
same,TGI,[6],> 100 µM
same,GI50,[7],12.1 µM
same,TGI,[7],38.3 µM
same,GI50,[8],5.29 µM
same,TGI,[8],20.6 µM
same,GI50,[9],12.2 µM
same,TGI,[9],28 µM
same,GI50,[10],14.7 µM
same,TGI,[10],44.7 µM
same,GI50,[11],> 100 µM
same,TGI,[11],> 100 µM
same,GI50,[12],44.6 µM
same,TGI,[12],> 100 µM
same,GI50,[13],25.8 µM
same,TGI,[13],> 100 µM
same,GI50,[14],11.7 µM
same,TGI,[14],63 µM
same,GI50,[15],15.9 µM
same,TGI,[15],44.6 µM
same,GI50,[16],40 µM
same,TGI,[16],> 100 µM
same,GI50,[17],19.2 µM
same,TGI,[17],97.3 µM
same,GI50,[18],48.3 µM
same,TGI,[18],> 100 µM
same,GI50,[19],38.3 µM
same,TGI,[19],> 100 µM
same,GI50,[20],22.9 µM
same,TGI,[20],> 100 µM
same,GI50,[21],26.1 µM
same,TGI,[21],> 100 µM
same,GI50,[22],38.3 µM
same,TGI,[22],> 100 µM
same,GI50,[23],14.5 µM
same,TGI,[23],72.1 µM
same,GI50,[24],23.4 µM
same,TGI,[24],64.9 µM
same,GI50,[25],74.1 µM
same,TGI,[25],> 100 µM
same,GI50,[26],5.76 µM
same,TGI,[26],> 100 µM
same,GI50,[27],15.9 µM
same,TGI,[27],71.1 µM
same,GI50,[28],51.5 µM
same,TGI,[28],> 100 µM
same,GI50,[29],> 100 µM
same,TGI,[29],> 100 µM
same,GI50,[30],30.1 µM
same,TGI,[30],> 100 µM
same,GI50,[31],30.7 µM
same,TGI,[31],> 100 µM
same,GI50,[32],3.76 µM
same,TGI,[32],20.4 µM
same,GI50,[33],31.4 µM
same,TGI,[33],50.9 µM
same,GI50,[34],11.6 µM
same,TGI,[34],24.2 µM
same,GI50,[35],69.5 µM
same,TGI,[35],> 100 µM
same,GI50,[36],13.4 µM
same,TGI,[36],86.9 µM
same,GI50,[37],3.53 µM
same,TGI,[37],25.1 µM
same,GI50,[38],11.5 µM
same,TGI,[38],66.2 µM
same,GI50,[39],35.9 µM
same,TGI,[39],> 100 µM
same,GI50,[40],17.3 µM
same,TGI,[40],59.4 µM
same,GI50,[41],22 µM
same,TGI,[41],69.6 µM
same,GI50,[42],61.7 µM
same,TGI,[42],> 100 µM
same,GI50,[43],0.817 µM
same,TGI,[43],22.2 µM
same,GI50,[44],25.5 µM
same,TGI,[44],> 100 µM
same,GI50,[45],29.1 µM
same,TGI,[45],> 100 µM
same,GI50,[46],19.3 µM
same,TGI,[46],77.8 µM
same,GI50,[47],17.9 µM
same,TGI,[47],78 µM
same,GI50,[48],39.7 µM
same,TGI,[48],> 100 µM
same,GI50,[49],41 µM
same,TGI,[49],> 100 µM
same,GI50,[50],25.6 µM
same,TGI,[50],68.9 µM
same,GI50,[51],16.8 µM
same,TGI,[51],78.7 µM
same,GI50,[52],77.4 µM
same,TGI,[52],> 100 µM
same,GI50,[53],14.2 µM
same,TGI,[53],55.8 µM
same,GI50,[54],52.2 µM
same,TGI,[54],> 100 µM
same,GI50,[55],2.41 µM
same,TGI,[55],69.4 µM
same,GI50,[56],9.97 µM
same,TGI,[56],35.1 µM
same,GI50,[57],63.8 µM
same,TGI,[57],> 100 µM
